Test results published in US20240366560A1, “SMALL MOLECULE TREATMENT OF FATTY LIVER DISEASE AND HCC” (ScandiEdge Therapeutics AB, priority 2021, published 2024).

Assays:
PKLR = PKLR protein level by western blot in steatosis-induced HepG2, 7-day drug treatment; assay type: cell-based; details: steatosis-induced HepG2, 7 days of drug treatment, P<0.05, FIG. 2B
Method: WT HepG2 was included in this study and cultured by Roswell Park Memorial Institute (RPMI, R2405, Sigma Aldrich) 1640 Medium with 10% fetal bovine serum (FBS) and 1% penicillin-streptomycin (PS). To induce a steatosis model into WT HepG2 cells, high glucose Dulbecco's Modified Eagle Media (DMEM, D0822/D5671, Sigma-Aldrich) containing 10% FBS and 1% PS was used as medium for one week, together with 10 μg/mL insulin and 10 μM T0901317. All of cells were incubated in the incubator with 5% CO2 and 37° C. (Thermo SCIENTIFIC). Fresh medium was provided every two days.
As for drug-screening, different numbers of HepG2 cells were seeded for distinct experiments. More in details, 40,000 cells and 500,000 cells were used for 2-day-drug treatment in 96-well-plate and 6-well plate, respectively, while 80,000 cells and 300,000 cells were used for one-week drug treatment in 96-well plate and 6-well plate, respectively. Detailed drug dosages could be found in FIG. 5. Fresh medium was provided every two days.
Protein content levels were detected by western blot. After the respective treatment of drugs, the cell pellets were lysed in cell lytic M, followed by protein extraction from supernatant (10 min, 13,000r/min centrifuge). Extracted cell lysate was stored in −20° C. Proteins were quantified through Bovine albumin serum (BAS) standard curve with protein assay dye reagent (BIO-RAD). The proteins were separated by SDS-PAGE with 100v in 90 min by mini-protein TGX precast gels (4-15%, 15 wells, 15 μl/well, BIO-RAD), and then transfer to Mini PVDF transfer package through transfer system (Transfer-Turbo, BIO-RAD). After 30 min blocking with 5% skim milk in cold room (4° C.) and washing with TBST, membrane was cut by the size of interested proteins. Primary antibodies were added into the corresponding membrane sections for overnight binding. Then the membranes were washed with TBST, and the secondary antibodies were incubated for 1 h in cold room. The following antibody were used: (Goat pAb to Rb lg, ab205718, abcam; Rb pAb to beta-actin, ab8227, abcam; anti-pklr, HPA006653, SIGMA; Rb pAb to fatty acid synthase, ab99539, abcam). The bindings were imaged by immunostaining and machine (ImageQuant LAS 500). All antibodies were purchased from Abcam online, and βactin was used as global normalized protein. After measurement, the strength of signal for each protein was quantified by ImageJ. The background noise was removed, and all results were normalized by the levels of β-actin.
To further analyse the effect of these drugs on lipid accumulation via the DNL pathway, steatosis was induced to HepG2 by treating the cells with high glucose medium (DMEM), insulin and T0901317 (Hansmannel et al., 2006). […] Therefore, the effects of these two drugs on the de novo synthesis of lipids were investigated based on the steatosis-induced HepG2 model. […] Taken together, it was shown that BX-912 and JNK-IN-5A effectively alleviate the protein expression of PKLR and FASN as well as TG levels in HepG2 cell lines, and thus, it was decided to perform in vivo evaluations to test the effect of these two drugs.

Sprague Dawley male rats [1] = experiment: In vivo biosafety study: micronucleus frequencies (MNPCEs) in blood; design: species or system rat; details: 30 mg/kg oral, 7 days, CHOW, p>0.05
Method: (§1) In vivo biosafety studies. Healthy Sprague Dawley male rats (12 weeks old, 250-280 g) were obtained from Atatürk University Experimental Research Center (ATADEM, Erzurum Turkey) and housed under standard environmental conditions (temperature 20° C.-25° C., humidity 50±20% and 12-hour light/dark diurnal cycle). Food and water were available ad libitum. Rats were randomly separated into one control group and two experimental groups (30 mg/kg/day BX-912 or JNK-IN-5A, n=5). BX-912 and JNK-IN-5A were dissolved in DMSO and orally administrated using oral gavage for 7 days. The control group were received the same amount of vehicle solution only.
(§2) After 7 days, rats were anaesthetized, and blood samples were collected from the abdominal aorta for biochemical and haematological analysis. The plasma was separated and stored at −80° C. for further analysis. Major organs such as heart, kidney, liver, muscle, adipose, intestine (duodenum, ileum, jejunum), pancreas, colon, and stomach were collected from all the animals for further analysis. Selected organs were fixed in 10% neutral buffered formalin for histopathological examination.
To evaluate the potential toxicity of BX-912 and JNK-IN-5A in animals, three groups of 12-week-old rats (n=5) were raised. The first group was fed with CHOW (Ctrl) for seven days. The second group was fed with CHOW plus BX-912 (30 mg/kg) for seven days. […]

Sprague Dawley male rats [2] = experiment: In vivo biosafety study: histopathological examination of major organs; design: species or system rat; details: 30 mg/kg oral, 7 days, CHOW
Method: as §1, §2
Histopathological examination. The liver tissues were fixed in 10% buffered formaldehyde solution. After fixation, the tissues were passed through graded alcohol and xylene series and embedded in paraffin blocks. 5 micrometer thick sections were taken serially from the paraffin blocks. Histopathological changes were evaluated by performing hematoxylin eosin staining on the sections taken. Sections were evaluated according to histopathological findings as none (−), mild (+), moderate (++) and severe (+++).
To evaluate the potential toxicity of BX-912 and JNK-IN-5A in animals, three groups of 12-week-old rats (n=5) were raised. The first group was fed with CHOW (Ctrl) for seven days. The second group was fed with CHOW plus BX-912 (30 mg/kg) for seven days. The third group was fed with CHOW plus JNK-IN-5A (30 mg/kg) for seven days. After the seven days, all rats were sacrificed, and tissue samples from major organs and blood samples were collected for biosafety evaluation.

Sprague Dawley male rats [3] = experiment: In vivo biosafety study: immunohistochemical 8-OH-dG examination of liver; design: species or system rat; details: 30 mg/kg oral, 7 days, CHOW
Method: as §1, §2
Immunohistochemical examination. After deparaffinization, the slides were immersed in antigen retrieval solution (pH 6.0) and heated in microwave for 15 min to unmask the antigens. The sections were then dipped in 3% H2O2 for 10 min to block endogenous peroxidase activity. […]

HepG2 cells = experiment: MTT assay of liver cancer cell viability; assay type: cell-based; details: HepG2, 10 μM, two days, FIG. 4
Method: HepG2 cells were seeded into a 96 well plate at 20,000 cells per well as hexaplicated. Next day, treatment of the cells with 10 μM drugs (BX-912 and JNK-IN-5A) was started. The treatment lasted for two days. Cell viability was measured using MTT assay. Cells were incubated with 5 mg/ml MTT 3-4 5-DIMETHYLTHIAZ ([…] Thermo fisher) in PBS for 2 h. Microplate reader measured cell viability O.D at 570 nm.

SMILES	protein expression level of PKLR (PKLR)	frequencies of MNPCEs compared to Ctrl animals (Sprague Dawley male rats [1])	histological structure of kidney, small intestine, large intestine, stomach, heart, pancreas, muscle tissues and liver (Sprague Dawley male rats [2])	side effects on the rats (overall conclusion) (Sprague Dawley male rats [2])	8-OH-dG expression in liver tissues (IHC) (Sprague Dawley male rats [3])	viability of liver cancer cells in the MTT assay (HepG2 cells)
N#Cc1c(NC(=O)c2cccc3ccccc23)sc2c1CCCC2 [JNK-IN-5A, N-(3-cyano-4,5,6,7-tetrahydrobenzo [b]thien-2-yl)-1-naphthalenecarboxamide]	significantly decreased	not statistically different	normal histological structures	no side effects	negative	significantly reduced
O=C(Nc1cccc(Nc2ncc(Br)c(NCCc3cnc[nH]3)n2)c1)N1CCCC1 [BX-912, N-[3-[[5-bromo-4-[[2-(1H-imidazol-5-yl)ethyl]amino]-2-pyrimidinyl]amino]phenyl]-1-pyrrolidinecarboxamide]	significantly decreased	not statistically different	normal histological structures	no side effects	negative	significantly reduced
